Test results taken from patent EP4737445A1, “NOVEL SATURATED HETEROCYCLE-SUBSTITUTED HETEROARYL-CARBONOHYDRAZONOYL DICYANIDE COMPOUND AND USE THEREOF” (Korea Institute of Science and Technology, priority 2023, dated 2025).

What was measured:
Assay type in all cases: in vitro ADME
CYP2D6 = target: T1, CYP2D6 (Homo sapiens, UniProt P10635); experiment: CYP isoenzyme activity inhibition in human liver microsomes, CYP2D6; conditions: 10 µM compound; human liver microsomes 0.25 mg/mL; relative to control without compound
T1 construct: human liver microsomes (0.25 mg/mL); from tissue; host or cells: human liver microsomes
T1 sequence (P10635 whole entry): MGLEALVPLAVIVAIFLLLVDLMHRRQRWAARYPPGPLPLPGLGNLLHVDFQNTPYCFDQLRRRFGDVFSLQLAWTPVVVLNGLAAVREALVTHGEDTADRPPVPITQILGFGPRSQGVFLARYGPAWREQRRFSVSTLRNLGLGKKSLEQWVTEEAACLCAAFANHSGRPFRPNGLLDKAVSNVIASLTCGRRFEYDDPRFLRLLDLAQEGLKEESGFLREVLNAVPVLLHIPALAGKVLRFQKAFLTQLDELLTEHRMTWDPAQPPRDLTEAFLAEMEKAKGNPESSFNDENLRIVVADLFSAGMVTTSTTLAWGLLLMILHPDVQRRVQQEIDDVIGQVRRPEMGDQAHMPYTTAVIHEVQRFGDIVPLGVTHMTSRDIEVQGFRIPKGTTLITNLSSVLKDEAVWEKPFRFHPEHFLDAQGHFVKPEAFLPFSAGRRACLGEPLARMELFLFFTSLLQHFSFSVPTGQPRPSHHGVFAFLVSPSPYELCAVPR
Experimental: (§1) The CYP isoenzyme activity inhibitory effect by the compounds prepared according to Examples 1 to 46 was confirmed. Specifically, human liver microsomes (0.25 mg/mL), 0.1 M phosphate buffer solution (pH 7.4), a substrate drug cocktail of five drug metabolizing enzymes (Phenacetin 50 µM, Diclofenac 10 µM, S-mephenytoin 100 µM, Dextromethorphan 5 µM, and Midazolam 2.5 µM), and the compounds were added at concentrations of 0 or 10 µM, respectively, and pre-incubated at 37°C for 5 minutes, and then NADPH generation system solution was added and incubated at 37°C for an additional 15 minutes. Thereafter, an acetonitrile solution containing an internal standard (Terfenadine) was added to terminate the reaction, and after centrifugation for 5 minutes (14,000 rpm, 4°C), the supernatant was injected into an LC-MS/MS system to simultaneously analyze the metabolites of the substrate drugs, thereby evaluating the drug metabolizing enzyme inhibitory activity.
(§2) The metabolites of each CYP isoenzyme marker drug generated through the reaction were analyzed using a Shimadzu Nexera XR system and TSQ vantage (Thermo). A Kinetex C18 (2.1 × 100 mm, 2.6 µm, particle size; Phenomenex, USA) was used as the HPLC column, and (A) distilled water containing 0.1% formic acid and (B) acetonitrile containing 0.1% formic acid were used as mobile phases, and a gradient program as shown in Table 6 below was applied.
(§3) The generated metabolites were quantified using MRM (Multiple Reaction Monitoring) quantitative mode, and Xcalibur (version 1.6.1) was used for data analysis. To show the CYP isoenzyme activity inhibitory effect of the novel compounds prepared according to the Examples of the disclosure, the % activity of CYP isoenzymes relative to the control group without compound addition is shown in Table 6 below. Additionally, to confirm the difference in effect according to substituents, Comparative Compounds 1 and 5, which are two compounds that share a similar parent nucleus structure with Compounds 1 to 46 of the disclosure while Cy is substituted with aromatic heteroaryl instead of saturated heterocyclyl, were selected as comparative compounds and their activities are shown together.

[1] = Liver microsomal stability, rat; conditions: 1 µM compound; 0.5 mg/mL microsomes; NADPH; 30 minutes at 37°C
Experimental: Liver microsomal stability by the compounds prepared according to Examples 1 to 46 was confirmed. Specifically, four types of liver microsomes (human, dog, rat, and mouse each at 0.5 mg/mL), 0.1 M phosphate buffer solution (pH 7.4), and the compounds at 1 µM concentration were added and pre-incubated at 37°C for 5 minutes, and then NADPH generation system solution was added and incubated at 37°C for an additional 30 minutes. Thereafter, an acetonitrile solution containing an internal standard (chloropropamide) was added to terminate the reaction, and after centrifugation for 5 minutes (14,000 rpm, 4°C), the supernatant was injected into an LC-MS/MS system to analyze the substrate drug, thereby evaluating the metabolic stability of 8 compounds.
The amount of remaining substrate through the reaction was analyzed using a Shimadzu Nexera XR system and TSQ vantage (Thermo). A Kinetex XB-C18 (2.1 × 100 mm, 2.6 µm, particle size; Phenomenex, USA) was used as the HPLC column, and (A) distilled water containing 0.1% formic acid and (B) acetonitrile containing 0.1% formic acid were used as mobile phases. Analyst software (version 1.6.3) and Xcalibur (version 1.6.1) were used for data analysis. The calculated results are shown in Table 5 below: Liver microsomal stability data of novel compounds from […] (human, rat, and mouse).

CYP2C9 = target: T2, CYP2C9 (Homo sapiens, UniProt P11712); experiment: CYP isoenzyme activity inhibition in human liver microsomes, CYP2C9; conditions: 10 µM compound; human liver microsomes 0.25 mg/mL; relative to control without compound
T2 construct: human liver microsomes (0.25 mg/mL); from tissue; host or cells: human liver microsomes
T2 sequence (P11712 whole entry): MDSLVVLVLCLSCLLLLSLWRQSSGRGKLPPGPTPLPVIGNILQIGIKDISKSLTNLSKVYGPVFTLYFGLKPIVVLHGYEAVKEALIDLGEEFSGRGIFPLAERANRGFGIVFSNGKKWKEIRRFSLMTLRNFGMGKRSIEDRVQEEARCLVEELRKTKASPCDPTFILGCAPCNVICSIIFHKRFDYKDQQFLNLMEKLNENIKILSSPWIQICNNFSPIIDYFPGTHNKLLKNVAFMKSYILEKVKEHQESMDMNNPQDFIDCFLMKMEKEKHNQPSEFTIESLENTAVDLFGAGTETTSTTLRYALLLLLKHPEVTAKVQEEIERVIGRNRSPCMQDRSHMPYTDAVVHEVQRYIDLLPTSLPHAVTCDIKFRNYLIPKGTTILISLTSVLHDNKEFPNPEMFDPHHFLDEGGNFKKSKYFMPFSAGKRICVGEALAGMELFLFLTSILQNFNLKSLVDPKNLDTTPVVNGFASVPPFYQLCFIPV
Experimental: as §1, §2, §3

CYP3A4 = target: T3, CYP3A4 (Homo sapiens, UniProt P08684); experiment: CYP isoenzyme activity inhibition in human liver microsomes, CYP3A4; conditions: 10 µM compound; human liver microsomes 0.25 mg/mL; relative to control without compound
T3 construct: human liver microsomes (0.25 mg/mL); from tissue; host or cells: human liver microsomes
T3 sequence (P08684 whole entry): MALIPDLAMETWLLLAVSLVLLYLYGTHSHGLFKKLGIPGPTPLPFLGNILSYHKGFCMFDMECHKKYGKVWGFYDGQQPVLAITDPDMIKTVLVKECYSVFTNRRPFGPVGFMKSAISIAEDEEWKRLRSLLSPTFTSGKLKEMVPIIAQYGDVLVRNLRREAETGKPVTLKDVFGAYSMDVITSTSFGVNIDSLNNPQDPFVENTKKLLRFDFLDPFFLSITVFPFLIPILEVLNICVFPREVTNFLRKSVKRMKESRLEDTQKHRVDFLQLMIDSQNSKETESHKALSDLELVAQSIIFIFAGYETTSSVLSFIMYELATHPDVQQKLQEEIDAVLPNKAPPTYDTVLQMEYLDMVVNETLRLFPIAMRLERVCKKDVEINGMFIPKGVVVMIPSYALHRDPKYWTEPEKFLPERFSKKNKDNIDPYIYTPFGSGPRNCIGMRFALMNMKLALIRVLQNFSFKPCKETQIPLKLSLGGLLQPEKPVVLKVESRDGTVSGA
Experimental: as §1, §2, §3

CYP1A2 = target: T4, CYP1A2 (Homo sapiens, UniProt P05177); experiment: CYP isoenzyme activity inhibition in human liver microsomes, CYP1A2; conditions: 10 µM compound; human liver microsomes 0.25 mg/mL; relative to control without compound
T4 construct: human liver microsomes (0.25 mg/mL); from tissue; host or cells: human liver microsomes
T4 sequence (P05177 1-516): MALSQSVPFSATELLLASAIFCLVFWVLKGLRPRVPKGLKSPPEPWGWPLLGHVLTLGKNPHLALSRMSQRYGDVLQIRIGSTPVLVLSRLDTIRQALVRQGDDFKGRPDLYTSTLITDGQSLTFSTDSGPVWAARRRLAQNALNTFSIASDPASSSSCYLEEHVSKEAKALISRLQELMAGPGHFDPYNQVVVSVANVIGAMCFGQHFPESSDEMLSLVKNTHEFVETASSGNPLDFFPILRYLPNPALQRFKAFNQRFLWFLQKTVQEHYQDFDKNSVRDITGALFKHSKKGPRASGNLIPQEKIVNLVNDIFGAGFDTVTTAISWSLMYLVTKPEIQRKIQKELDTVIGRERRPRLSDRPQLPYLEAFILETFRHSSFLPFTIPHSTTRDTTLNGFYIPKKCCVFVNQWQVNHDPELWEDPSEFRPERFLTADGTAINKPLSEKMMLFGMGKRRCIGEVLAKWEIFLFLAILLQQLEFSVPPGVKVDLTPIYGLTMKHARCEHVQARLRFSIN
Experimental: as §1, §2, §3

CYP2C19 = target: T5, CYP2C19 (Homo sapiens, UniProt P33261); experiment: CYP isoenzyme activity inhibition in human liver microsomes, CYP2C19; conditions: 10 µM compound; human liver microsomes 0.25 mg/mL; relative to control without compound
T5 construct: human liver microsomes (0.25 mg/mL); from tissue; host or cells: human liver microsomes
T5 sequence (P33261 whole entry): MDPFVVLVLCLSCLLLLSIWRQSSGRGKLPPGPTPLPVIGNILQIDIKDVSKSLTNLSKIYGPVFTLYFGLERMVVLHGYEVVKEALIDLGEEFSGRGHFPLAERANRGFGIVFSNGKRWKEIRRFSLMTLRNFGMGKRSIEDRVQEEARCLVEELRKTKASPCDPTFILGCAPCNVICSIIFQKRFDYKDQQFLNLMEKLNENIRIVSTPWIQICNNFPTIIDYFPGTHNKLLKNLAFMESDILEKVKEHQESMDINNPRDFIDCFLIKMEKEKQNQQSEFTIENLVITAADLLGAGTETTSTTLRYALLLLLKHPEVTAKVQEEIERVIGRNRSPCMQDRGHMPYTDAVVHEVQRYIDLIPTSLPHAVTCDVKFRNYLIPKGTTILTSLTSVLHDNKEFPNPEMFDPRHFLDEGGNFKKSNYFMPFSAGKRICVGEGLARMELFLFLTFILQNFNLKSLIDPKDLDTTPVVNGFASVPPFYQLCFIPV
Experimental: as §1, §2, §3

CC1COCCN1c1nc2ccc(NN=C(C#N)C#N)cc2s1 (centres unmarked) [Compound 13, (2-(3-methylmorpholino)benzo[d]thiazol-6-yl)carbonohydrazonoyl dicyanide]
CYP2D6 (% activity) (CYP2D6): > 100 % activity
Rat microsomes (% remaining) [1]: 47.7 % remaining
CYP2C9 (% activity) (CYP2C9): 75 % activity
CYP3A4 (% activity) (CYP3A4): 84.8 % activity
CYP1A2 (% activity) (CYP1A2): 83 % activity
CYP2C19 (% activity) (CYP2C19): 83.3 % activity

N#CC(C#N)=NNc1ccc2nc(N3CCOCC3)oc2c1 [Compound 4, (2-morpholinobenzo[d]oxazol-6-yl)carbonohydrazonoyl dicyanide]
CYP2D6 (% activity) (CYP2D6): > 100 % activity
Rat microsomes (% remaining) [1]: 80.9 % remaining
CYP2C9 (% activity) (CYP2C9): 93.2 % activity
CYP3A4 (% activity) (CYP3A4): 94 % activity
CYP1A2 (% activity) (CYP1A2): 86.8 % activity
CYP2C19 (% activity) (CYP2C19): 93.4 % activity

CCn1c(N2CCOCC2)nc2cc(NN=C(C#N)C#N)ccc21 [Compound 33, (1-ethyl-2-morpholino-1H-benzo[d]imidazol-5-yl)carbonohydrazonoyl dicyanide]
CYP2D6 (% activity) (CYP2D6): 97.9 % activity
Rat microsomes (% remaining) [1]: 96.8 % remaining
CYP2C9 (% activity) (CYP2C9): 28.8 % activity
CYP3A4 (% activity) (CYP3A4): 75.4 % activity
CYP1A2 (% activity) (CYP1A2): 75.5 % activity
CYP2C19 (% activity) (CYP2C19): 78.6 % activity

Cn1c(N2C3CCC2COC3)nc2cc(NN=C(C#N)C#N)ccc21 [Compound 35, (2-(3-oxa-8-azabicyclo[3.2.1]octan-8-yl)-1-methyl-1H-benzo[d]imidazol-5-yl)carbonohydrazonoyl dicyanide]
CYP2D6 (% activity) (CYP2D6): 94.9 % activity
Rat microsomes (% remaining) [1]: 74.1 % remaining
CYP2C9 (% activity) (CYP2C9): 84.3 % activity
CYP3A4 (% activity) (CYP3A4): 86.1 % activity
CYP1A2 (% activity) (CYP1A2): 81.5 % activity
CYP2C19 (% activity) (CYP2C19): 82 % activity

CC(C)N1CCN(c2nc3ccc(NN=C(C#N)C#N)cc3s2)CC1 [Compound 27, (2-(4-isopropylpiperazin-1-yl)benzo[d]thiazol-6-yl)carbonohydrazonoyl dicyanide]
CYP2D6 (% activity) (CYP2D6): 92.3 % activity
CYP2C9 (% activity) (CYP2C9): 58.5 % activity
CYP3A4 (% activity) (CYP3A4): 59.8 % activity
CYP1A2 (% activity) (CYP1A2): 95.1 % activity
CYP2C19 (% activity) (CYP2C19): 95.4 % activity

CC(C)N1CCN(c2nc3ccc(NN=C(C#N)C#N)cc3o2)CC1 [Compound 28, (2-(4-isopropylpiperazin-1-yl)benzo[d]oxazol-6-yl)carbonohydrazonoyl dicyanide]
CYP2D6 (% activity) (CYP2D6): 78 % activity
Rat microsomes (% remaining) [1]: 50.7 % remaining
CYP2C9 (% activity) (CYP2C9): 48.5 % activity
CYP3A4 (% activity) (CYP3A4): 87.8 % activity
CYP1A2 (% activity) (CYP1A2): 95.5 % activity
CYP2C19 (% activity) (CYP2C19): 90.8 % activity

Cn1c(N2C3CCC2COC3)nc2ccc(NN=C(C#N)C#N)cc21 [Compound 34, (2-(3-oxa-8-azabicyclo[3.2.1]octan-8-yl)-1-methyl-1H-benzo[d]imidazol-6-yl)carbonohydrazonoyl dicyanide]
CYP2D6 (% activity) (CYP2D6): 92.4 % activity
Rat microsomes (% remaining) [1]: 97.1 % remaining
CYP2C9 (% activity) (CYP2C9): 80.8 % activity
CYP3A4 (% activity) (CYP3A4): 84.3 % activity
CYP1A2 (% activity) (CYP1A2): 85.8 % activity
CYP2C19 (% activity) (CYP2C19): 80.6 % activity

N#CC(C#N)=NNc1ccc2nc(N3CCNCC3)sc2c1 [Compound 24, (2-(piperazin-1-yl)benzo[d]thiazol-6-yl)carbonohydrazonoyl dicyanide]
CYP2D6 (% activity) (CYP2D6): 74.2 % activity
CYP2C9 (% activity) (CYP2C9): 72.0 % activity
CYP3A4 (% activity) (CYP3A4): 74.7 % activity
CYP1A2 (% activity) (CYP1A2): 65.1 % activity
CYP2C19 (% activity) (CYP2C19): 67.9 % activity

Cn1c(N2CCOCC2)nc2cc(NN=C(C#N)C#N)ccc21 [Compound 6, (1-methyl-2-morpholino-1H-benzo[d]imidazol-5-yl)carbonohydrazonoyl dicyanide]
CYP2D6 (% activity) (CYP2D6): > 100 % activity
Rat microsomes (% remaining) [1]: 66.1 % remaining
CYP2C9 (% activity) (CYP2C9): > 100 % activity
CYP3A4 (% activity) (CYP3A4): 96.7 % activity
CYP1A2 (% activity) (CYP1A2): 92.3 % activity
CYP2C19 (% activity) (CYP2C19): 98.4 % activity

CCn1c(N2CCOCC2)nc2ccc(NN=C(C#N)C#N)cc21 [Compound 32, (1-ethyl-2-morpholino-1H-benzo[d]imidazol-6-yl)carbonohydrazonoyl dicyanide]
CYP2D6 (% activity) (CYP2D6): 92.1 % activity
Rat microsomes (% remaining) [1]: 81.7 % remaining
CYP2C9 (% activity) (CYP2C9): 65.1 % activity
CYP3A4 (% activity) (CYP3A4): 73 % activity
CYP1A2 (% activity) (CYP1A2): 78.9 % activity
CYP2C19 (% activity) (CYP2C19): 77.1 % activity

CN1CCN(c2nc3ccc(NN=C(C#N)C#N)cc3o2)CC1 [Compound 14, (2-(4-methylpiperazin-1-yl)benzo[d]oxazol-6-yl)carbonohydrazonoyl dicyanide]
CYP2D6 (% activity) (CYP2D6): > 100 % activity
CYP2C9 (% activity) (CYP2C9): 88 % activity
CYP3A4 (% activity) (CYP3A4): 96.8 % activity
CYP1A2 (% activity) (CYP1A2): 89.7 % activity
CYP2C19 (% activity) (CYP2C19): 95.5 % activity

N#CC(C#N)=NNc1ccc2nc(N3CCNCC3)oc2c1 [Compound 25, (2-(piperazin-1-yl)benzo[d]oxazol-6-yl)carbonohydrazonoyl dicyanide]
CYP2D6 (% activity) (CYP2D6): 93.5 % activity
CYP2C9 (% activity) (CYP2C9): 93.5 % activity
CYP3A4 (% activity) (CYP3A4): 91.5 % activity
CYP1A2 (% activity) (CYP1A2): 87 % activity
CYP2C19 (% activity) (CYP2C19): 85.7 % activity
